Source: US8063075B2, “Pyrrolidine ether derivatives as NK3 receptor antagonists” (Hoffmann-La Roche Inc., priority 2008, dated 2011)

Columns and labels:
[1] = phase II trial, cited from earlier work
[2] = molecular target: T1, recombinant human NK3 receptor (Homo sapiens, UniProt P29371); experiment: [3H]SR142801 competition binding assay; conditions: membranes from HEK293 cells transiently expressing hNK3; [3H]SR142801 at its KD; 75 min RT; read-out: Data [μM] (affinity constant Ki, hNK3 receptor binding)
T1 construct: expressed in transfected cells; host or cells: HEK293 cells (transient expression), membranes
T1 sequence (P29371 1-465): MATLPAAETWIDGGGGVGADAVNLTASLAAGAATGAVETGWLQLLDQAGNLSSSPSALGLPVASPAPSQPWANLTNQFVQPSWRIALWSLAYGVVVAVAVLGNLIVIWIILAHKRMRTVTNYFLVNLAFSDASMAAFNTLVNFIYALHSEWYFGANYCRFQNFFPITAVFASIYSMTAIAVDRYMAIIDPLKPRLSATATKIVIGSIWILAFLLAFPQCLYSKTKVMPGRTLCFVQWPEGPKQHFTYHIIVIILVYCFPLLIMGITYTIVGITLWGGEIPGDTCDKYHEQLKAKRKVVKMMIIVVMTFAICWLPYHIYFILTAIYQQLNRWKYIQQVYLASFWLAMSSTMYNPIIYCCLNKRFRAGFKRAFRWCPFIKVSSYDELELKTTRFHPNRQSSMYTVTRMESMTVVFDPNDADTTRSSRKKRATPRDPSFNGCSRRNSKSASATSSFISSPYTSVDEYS
Experimental: [^3H]SR142801 Competition Binding Assay
hNK3 receptor binding experiment were performed using [^3H]SR142801 (Catalog No. TRK1035, specific activity: 74.0 Ci/mmol, Amersham, GE Healthcare UK limited, Buckinghamshire, UK) and membrane isolated from HEK293 cells transiently expressing recombinant human NK3 receptor. After thawing, the membrane homogenates were centrifuged at 48,000×g for 10 min at 4° C., the pellets were resuspended in the 50 mM Tris-HCl, 4 mM MnCl2, 1 μM phosphoramidon, 0.1% BSA binding buffer at pH 7.4 to a final assay concentration of 5 μg protein/well. […] At the end of the incubation, membranes were filtered onto unitfilter (96-well white microplate with bonded GF/C filter preincubated 1 h in 0.3% PEI+0.3% BSA, Packard BioScience, Meriden, Conn.) with a Filtermate 196 harvester (Packard BioScience) and washed 4 times with ice-cold 50 mM Tris-HCl, pH 7.4 buffer. Nonspecific binding was measured in the presence of 10 μM SB222200 for both radioligands. The radioactivity on the filter was counted (5 min) on a Packard Top-count microplate scintillation counter with quenching correction after addition of 45 μl of microscint 40 (Can berra Packard S. A., Zürich, Switzerland) and shaking for 1 h. Inhibition curves were fitted according to the Hill equation: y=100/(1+(x/IC50)^nH), where nH=slope factor using Excel-fit 4 software (Microsoft). IC50 values were derived from the inhibition curve and the affinity constant (Ki) values were calculated using the Cheng-Prussoff equation Ki=IC50/(1+[L]/KD) where [L] is the concentration of radioligand and KD is its dissociation constant at the receptor, derived from the saturation isotherm. All experiments were performed in duplicate and the mean±standard error (SEM) of the individual Ki values was calculated.

Row | Compound | activity on positive symptoms of schizophrenia ([1]; altered behaviour, delusion, hallucinations, extreme emotions, excited motor activity, incoherent speech) | activity in the treatment of negative symptoms ([1]; depression, anhedonia, social isolation or memory and attention deficits) | Ki [2]
1 | CC(=O)N(C)C1(c2ccccc2)CCN(CCC[C@]2(c3ccc(Cl)c(Cl)c3)CCCN(C(=O)c3ccccc3)C2)CC1 [SR 142,801, Osanetant] | active | inactive | –
2 | C[C@H](Oc1ccc(Cl)cn1)[C@H]1CN(C(=O)C2CCN(C(=O)C3(C)CC3)CC2)C[C@@H]1c1ccc(F)cc1F (racemic) [Example 48, [(3RS,4SR)-3-[(SR)-1-(5-Chloro-pyridin-2-yloxy)-ethyl]-4-(2,4-difluoro-phenyl)-pyrrolidin-1-yl]-[1-(1-methyl-cyclopropanecarbonyl)-piperidin-4-yl]-methanone] | – | – | 0.0074 µM
3 | C[C@H](Oc1ccc(C#N)cn1)[C@H]1CN(C(=O)[C@H]2CC[C@H](NC(=O)OC(C)(C)C)CC2)C[C@@H]1c1ccc(Cl)c(Cl)c1 (racemic) [Example 43, {4-[(3RS,4SR)-3-[(SR)-1-(5-Cyano-pyridin-2-yloxy)-ethyl]-4-(3,4-dichloro-phenyl)-pyrrolidine-1-carbonyl]-cyclohexyl}-carbamic acid tert-butyl ester] | – | – | 0.007 µM
4 | COC(=O)N[C@H]1CC[C@H](C(=O)N2C[C@H]([C@H](C)Oc3ccc(Cl)cn3)[C@@H](c3ccc(Cl)c(Cl)c3)C2)CC1 (racemic) [Example 5, {4-[(3RS,4SR)-3-[(SR)-1-(5-Chloro-pyridin-2-yloxy)-ethyl]-4-(3,4-dichloro-phenyl)-pyrrolidine-1-carbonyl]-cyclohexyl}-carbamic acid methyl ester] | – | – | 0.0095 µM
5 | C[C@H](Oc1ccc(C#N)cn1)[C@H]1CN(C(=O)C2CCN(C(=O)CC#N)CC2)C[C@@H]1c1ccc(Cl)c(Cl)c1 (racemic) [Example 23, 6-{(SR)-1-[(3RS,4SR)-1-[1-(2-Cyano-acetyl)-piperidine-4-carbonyl]-4-(3,4-dichloro-phenyl)-pyrrolidin-3-yl]-ethoxy}-nicotinonitrile] | – | – | 0.0075 µM
6 | CC(=O)N1CCC(C(=O)N2C[C@H]([C@H](C)Oc3ccc(C(F)(F)F)cn3)[C@@H](c3ccc(Cl)c(Cl)c3)C2)CC1 (racemic) [Example 46, 1-(4-{(3SR,4RS)-3-(3,4-Dichloro-phenyl)-4-[(SR)-1-(5-trifluoromethyl-pyridin-2-yloxy)-ethyl]-pyrrolidine-1-carbonyl}-piperidin-1-yl)-ethanone] | – | – | 0.0018 µM
